Measured values as given in ChEMBL document CHEMBL4813981, “Synthesis and in vitro antibacterial activity of new aminothiazole-oximepiperidone cephalosporins” (2021).
In brackets after ≈: the same amount, converted by molar mass.

How the values were obtained:
[1] = test system: Klebsiella pneumoniae; test: Antibacterial activity against Multidrug resistant Klebsiella pneumoniae KR 15-1 assessed as reduction in bacterial growth; assay type: functional
[2] = test system: Acinetobacter baumannii; test: Antibacterial activity against Multidrug resistant Acinetobacter baumannii AR 15-2 assessed as reduction in bacterial growth; assay type: functional
[3] = test system: Escherichia coli; test: Antibacterial activity against Escherichia coli 15-4 overexpressing extended spectrum beta-lactamases assessed as reduction in bacterial growth in the presence of Avibactam; assay type: functional
[4] = test system: Acinetobacter baumannii; test: Antibacterial activity against Carbapenem- resistant Acinetobacter baumannii 17-3 assessed as reduction in bacterial growth in the presence of Avibactam; assay type: functional
[5] = test system: Acinetobacter baumannii; test: Antibacterial activity against Carbapenem- resistant Acinetobacter baumannii 17-6 assessed as reduction in bacterial growth in the presence of Avibactam; assay type: functional
[6] = test system: Acinetobacter baumannii; test: Antibacterial activity against Carbapenem- resistant Acinetobacter baumannii 17-9 assessed as reduction in bacterial growth in the presence of Avibactam; assay type: functional
[7] = test system: Acinetobacter baumannii; test: Antibacterial activity against Carbapenem- resistant Acinetobacter baumannii 17-10 assessed as reduction in bacterial growth in the presence of Avibactam; assay type: functional
[8] = test system: Acinetobacter baumannii; test: Antibacterial activity against Carbapenem- resistant Acinetobacter baumannii 17-12 assessed as reduction in bacterial growth in the presence of Avibactam; assay type: functional
[9] = test system: Klebsiella pneumoniae; test: Antibacterial activity against Carbapenem- resistant Klebsiella pneumoniae KR 15-8 assessed as reduction in bacterial growth in the presence of Avibactam; assay type: functional
[10] = test system: Pseudomonas aeruginosa; test: Antibacterial activity against Carbapenem- resistant Pseudomonas aeruginosa 17-8 assessed as reduction in bacterial growth in the presence of Avibactam; assay type: functional
[11] = test system: Klebsiella pneumoniae; test: Antibacterial activity against ESBLs positive Carbapenem-sensitive Klebsiella pneumoniae 17-4 assessed as reduction in bacterial growth in the presence of Avibactam; assay type: functional
[12] = test system: Klebsiella pneumoniae; test: Antibacterial activity against ESBLs positive Carbapenem-sensitive Klebsiella pneumoniae 17-8 assessed as reduction in bacterial growth in the presence of Avibactam; assay type: functional
[13] = test system: Klebsiella pneumoniae; test: Antibacterial activity against ESBLs positive Carbapenem-sensitive Klebsiella pneumoniae 17-9 assessed as reduction in bacterial growth in the presence of Avibactam; assay type: functional
[14] = test system: Klebsiella pneumoniae; test: Antibacterial activity against ESBLs negative Carbapenem-sensitive Klebsiella pneumoniae 17-20 assessed as reduction in bacterial growth in the presence of Avibactam; assay type: functional
[15] = test system: Escherichia coli; test: Antibacterial activity against ESBLs positive Carbapenem-sensitive Escherichia coli 17-6 assessed as reduction in bacterial growth in the presence of Avibactam; assay type: functional
[16] = test system: Escherichia coli; test: Antibacterial activity against ESBLs positive Carbapenem- sensitive Escherichia coli 17-17 assessed as reduction in bacterial growth in the presence of Avibactam; assay type: functional
[17] = test system: Enterobacter cloacae; test: Antibacterial activity against Enterobacter cloacae 17-8 assessed as reduction in bacterial growth in the presence of Avibactam; assay type: functional
[18] = test system: Enterobacter cloacae; test: Antibacterial activity against Enterobacter cloacae 17-10 assessed as reduction in bacterial growth in the presence of Avibactam; assay type: functional
[19] = test system: Klebsiella aerogenes; test: Antibacterial activity against Enterobacter aerogenes 17-4 assessed as reduction in bacterial growth in the presence of Avibactam; assay type: functional
[20] = test system: Klebsiella aerogenes; test: Antibacterial activity against Enterobacter aerogenes 15-5 assessed as reduction in bacterial growth in the presence of Avibactam; assay type: functional
[21] = test system: Pseudomonas aeruginosa; test: Antibacterial activity against Carbapenem- sensitive Pseudomonas aeruginosa 17-26 assessed as reduction in bacterial growth in the presence of Avibactam; assay type: functional
[22] = test system: Klebsiella pneumoniae; test: Bactericidal activity against Carbapenem- resistant Klebsiella pneumoniae KR 15-6 assessed as reduction in bacterial growth; assay type: functional
[23] = test system: Pseudomonas aeruginosa; test: Bactericidal activity against Carbapenem- resistant Pseudomonas aeruginosa 17-8 assessed as reduction in bacterial growth; assay type: functional
[24] = test system: Klebsiella pneumoniae; test: Bactericidal activity against ESBLs positive Carbapenem-sensitive Klebsiella pneumoniae 17-2 assessed as reduction in bacterial growth; assay type: functional
[25] = test system: Escherichia coli; test: Bactericidal activity against ESBLs positive Carbapenem-sensitive Escherichia coli 17-3 assessed as reduction in bacterial growth; assay type: functional
[26] = test system: Enterobacter cloacae; test: Bactericidal activity against Enterobacter cloacae 17-10 assessed as reduction in bacterial growth; assay type: functional
[27] = test system: Pseudomonas aeruginosa; test: Bactericidal activity against carbapenem-sensitive Pseudomonas aeruginosa 17-10 assessed as reduction in bacterial growth; assay type: functional
[28] = test system: Escherichia coli; test: Bactericidal activity against Escherichia coli ATCC 25922 assessed as reduction in bacterial growth; assay type: functional
[29] = test system: Acinetobacter baumannii; test: Bactericidal activity against Carbapenem- resistant Acinetobacter baumannii 17-6 assessed as reduction in bacterial growth in the presence of avibactam; assay type: functional
[30] = test system: Acinetobacter baumannii; test: Bactericidal activity against Carbapenem- resistant Acinetobacter baumannii 17-11 assessed as reduction in bacterial growth in the presence of avibactam; assay type: functional
[31] = test system: Pseudomonas aeruginosa; test: Bactericidal activity against Carbapenem- resistant Pseudomonas aeruginosa 17-8 assessed as reduction in bacterial growth in the presence of avibactam; assay type: functional
[32] = test system: Escherichia coli; test: Bactericidal activity against ESBLs negative carbapenem-sensitive Escherichia coli 17-7 assessed as reduction in bacterial growth in the presence of avibactam; assay type: functional
[33] = test system: Escherichia coli; test: Bactericidal activity against ESBLs negative carbapenem-sensitive Escherichia coli 17-20 assessed as reduction in bacterial growth in the presence of avibactam; assay type: functional
[34] = test system: Escherichia coli; test: Bactericidal activity against ESBLs positive carbapenem-sensitive Escherichia coli 17-10 assessed as reduction in bacterial growth in the presence of avibactam; assay type: functional
[35] = test system: Escherichia coli; test: Bactericidal activity against ESBLs positive carbapenem-sensitive Escherichia coli 17-18 assessed as reduction in bacterial growth in the presence of avibactam; assay type: functional
[36] = test system: Enterobacter cloacae; test: Bactericidal activity against Enterobacter cloacae 17-3 assessed as reduction in bacterial growth in the presence of avibactam; assay type: functional
[37] = test system: Enterobacter cloacae; test: Bactericidal activity against Enterobacter cloacae 17-8 assessed as reduction in bacterial growth in the presence of avibactam; assay type: functional
[38] = test system: Klebsiella aerogenes; test: Bactericidal activity against Enterobacter aerogenes 17-1 assessed as reduction in bacterial growth in the presence of avibactam; assay type: functional
[39] = test system: Klebsiella aerogenes; test: Bactericidal activity against Enterobacter aerogenes 17-4 assessed as reduction in bacterial growth in the presence of avibactam; assay type: functional
[40] = test system: Pseudomonas aeruginosa; test: Bactericidal activity against carbapenem-sensitive Pseudomonas aeruginosa 17-7 assessed as reduction in bacterial growth in the presence of avibactam; assay type: functional
[41] = test system: Pseudomonas aeruginosa; test: Bactericidal activity against carbapenem-sensitive Pseudomonas aeruginosa 17-26 assessed as reduction in bacterial growth in the presence of avibactam; assay type: functional
[42] = test system: Escherichia coli; test: Bactericidal activity against Escherichia coli ATCC 25922 assessed as reduction in bacterial growth in the presence of avibactam; assay type: functional
[43] = test system: Klebsiella aerogenes; test: Antibacterial activity against Enterobacter aerogenes 15-3 assessed as reduction in bacterial growth
[44] = test system: Acinetobacter baumannii; test: Antibacterial activity against Carbapenem- resistant Acinetobacter baumannii 17-2 assessed as reduction in bacterial growth
[45] = test system: Klebsiella pneumoniae; test: Antibacterial activity against Carbapenem- resistant Klebsiella pneumoniae KR 15-4 assessed as reduction in bacterial growth
[46] = test system: Escherichia coli; test: Antibacterial activity against ESBLs negative Carbapenem--sensitive Escherichia coli 17-20 assessed as reduction in bacterial growth
[47] = test system: Klebsiella pneumoniae; test: Antibacterial activity against ESBLs negative Carbapenem-sensitive Klebsiella pneumoniae 17-16 assessed as reduction in bacterial growth

Nc1nc(/C(=N/OCc2cc(=O)c(O)cn2O)C(=O)N[C@@H]2C(=O)N3C(C(=O)O)=CCS[C@H]23)cs1
MIC [1]: > 64 µg/mL
MIC [2]: > 64 µg/mL
MIC [3]: 0.5 µg/mL
MIC [4]: 16 µg/mL
MIC [5]: 16 µg/mL
MIC [6]: 16 µg/mL
MIC [7]: 16 µg/mL
MIC [8]: 16 µg/mL
MIC [9]: 4 µg/mL
MIC [10]: 16 µg/mL
MIC [11]: 2 µg/mL
MIC [12]: 0.5 µg/mL
MIC [13]: 0.5 µg/mL
MIC [14]: 0.06 µg/mL
MIC [15]: 0.5 µg/mL
MIC [16]: 0.5 µg/mL
MIC [17]: 2 µg/mL
MIC [18]: 0.5 µg/mL
MIC [19]: 1 µg/mL
MIC [20]: 1 µg/mL
MIC [21]: 1 µg/mL
MBC [22]: 64 µg/mL (≈ 126 µM)
MBC [23]: 64 µg/mL (≈ 126 µM)
MBC [24]: 2 µg/mL (≈ 3.93 µM)
MBC [25]: 2 µg/mL (≈ 3.93 µM)
MBC [26]: > 8 µg/mL
MBC [27]: 8 µg/mL (≈ 15.7 µM)
MBC [28]: > 8 µg/mL
MBC [29]: 16 µg/mL
MBC [30]: > 64 µg/mL
MBC [31]: 32 µg/mL
MBC [32]: 1 µg/mL
MBC [33]: > 0.5 µg/mL
MBC [34]: 0.5 µg/mL
MBC [35]: 1 µg/mL
MBC [36]: 8 µg/mL
MBC [37]: 2 µg/mL
MBC [38]: 4 µg/mL
MBC [39]: 1 µg/mL
MBC [40]: 0.25 µg/mL
MBC [41]: 4 µg/mL
MBC [42]: 0.5 µg/mL
MIC [43]: > 64 µg/mL
MIC [44]: > 64 µg/mL
MIC [45]: > 64 µg/mL
MIC [46]: > 2 µg/mL
MIC [47]: 0.5 µg/mL (≈ 0.983 µM)

CC(C)(O/N=C(\C(=O)N[C@@H]1C(=O)N2C(C(=O)[O-])=C(C[n+]3ccccc3)CS[C@H]12)c1csc(N)n1)C(=O)O [CEFTAZIDIME]
MIC [1]: > 64 µg/mL
MIC [2]: > 64 µg/mL
MIC [3]: 0.5 µg/mL
MIC [4]: 8 µg/mL
MIC [5]: 8 µg/mL
MIC [6]: 8 µg/mL
MIC [7]: 4 µg/mL
MIC [8]: 8 µg/mL
MIC [9]: 4 µg/mL
MIC [10]: 16 µg/mL
MIC [11]: 4 µg/mL
MIC [12]: 2 µg/mL
MIC [13]: 0.5 µg/mL
MIC [14]: 0.125 µg/mL
MIC [15]: 0.5 µg/mL
MIC [16]: 0.5 µg/mL
MIC [17]: 0.125 µg/mL
MIC [18]: 1 µg/mL
MIC [19]: 0.5 µg/mL
MIC [20]: 0.5 µg/mL
MIC [21]: 1 µg/mL
MBC [22]: 64 µg/mL (≈ 117 µM)
MBC [23]: 64 µg/mL (≈ 117 µM)
MBC [24]: 4 µg/mL (≈ 7.32 µM)
MBC [25]: 2 µg/mL (≈ 3.66 µM)
MBC [26]: 4 µg/mL (≈ 7.32 µM)
MBC [27]: 8 µg/mL (≈ 14.6 µM)
MBC [28]: 0.5 µg/mL (≈ 0.915 µM)
MBC [29]: 16 µg/mL
MBC [30]: 32 µg/mL
MBC [31]: 16 µg/mL
MBC [32]: 0.125 µg/mL
MBC [33]: > 2 µg/mL
MBC [34]: 1 µg/mL
MBC [35]: 0.5 µg/mL
MBC [36]: 0.25 µg/mL
MBC [37]: 1 µg/mL
MBC [38]: 1 µg/mL
MBC [39]: 0.5 µg/mL
MBC [40]: 0.25 µg/mL
MBC [41]: 2 µg/mL
MBC [42]: 1 µg/mL
MIC [43]: > 64 µg/mL
MIC [44]: > 64 µg/mL
MIC [45]: > 64 µg/mL
MIC [46]: > 2 µg/mL
MIC [47]: 2 µg/mL (≈ 3.66 µM)
